Structures can show the parent of a compound that is named as a salt.

Test system in the first data set: not given
Assay: not given
Conditions: not given
Broadly, the melting point is the temperature of the solid-liquid transition. `CN1CCC(c2c[nH]c(=O)c3c(F)cccc23)CC1` gave a melting point of 227.6 to 229.3 °C.
`Cc1ccc2c(C3CCN(C)CC3)c[nH]c(=O)c2c1`: the melting point fell in the range of 212.8 to 214.8 °C.
On to `CN1CCC(c2c[nH]c(=O)c3cc(C(F)(F)F)ccc23)CC1` (as salt: hydrochloride) [Example 198, 4-(1-Methylpiperidin-4-yl)-7-trifluoromethyl-2H-isoquinolin-1-one], for which the melting point lay in the range of 231.8 to 234.6 °C.
Regarding `COc1ccc2c(C3CCN(C)CC3)c[nH]c(=O)c2c1` [Example 201, 7-Methoxy-4-(1-methylpiperidin-4-yl)-2H-isoquinolin-1-one], the melting point was in the range of 224.9 to 226.2 °C.

In the next data set the target is T1, recombinant human PARP (Homo sapiens, UniProt P09874).
T1 construct: purchased Trevigen 4667-02X
T1 sequence (P09874 whole entry): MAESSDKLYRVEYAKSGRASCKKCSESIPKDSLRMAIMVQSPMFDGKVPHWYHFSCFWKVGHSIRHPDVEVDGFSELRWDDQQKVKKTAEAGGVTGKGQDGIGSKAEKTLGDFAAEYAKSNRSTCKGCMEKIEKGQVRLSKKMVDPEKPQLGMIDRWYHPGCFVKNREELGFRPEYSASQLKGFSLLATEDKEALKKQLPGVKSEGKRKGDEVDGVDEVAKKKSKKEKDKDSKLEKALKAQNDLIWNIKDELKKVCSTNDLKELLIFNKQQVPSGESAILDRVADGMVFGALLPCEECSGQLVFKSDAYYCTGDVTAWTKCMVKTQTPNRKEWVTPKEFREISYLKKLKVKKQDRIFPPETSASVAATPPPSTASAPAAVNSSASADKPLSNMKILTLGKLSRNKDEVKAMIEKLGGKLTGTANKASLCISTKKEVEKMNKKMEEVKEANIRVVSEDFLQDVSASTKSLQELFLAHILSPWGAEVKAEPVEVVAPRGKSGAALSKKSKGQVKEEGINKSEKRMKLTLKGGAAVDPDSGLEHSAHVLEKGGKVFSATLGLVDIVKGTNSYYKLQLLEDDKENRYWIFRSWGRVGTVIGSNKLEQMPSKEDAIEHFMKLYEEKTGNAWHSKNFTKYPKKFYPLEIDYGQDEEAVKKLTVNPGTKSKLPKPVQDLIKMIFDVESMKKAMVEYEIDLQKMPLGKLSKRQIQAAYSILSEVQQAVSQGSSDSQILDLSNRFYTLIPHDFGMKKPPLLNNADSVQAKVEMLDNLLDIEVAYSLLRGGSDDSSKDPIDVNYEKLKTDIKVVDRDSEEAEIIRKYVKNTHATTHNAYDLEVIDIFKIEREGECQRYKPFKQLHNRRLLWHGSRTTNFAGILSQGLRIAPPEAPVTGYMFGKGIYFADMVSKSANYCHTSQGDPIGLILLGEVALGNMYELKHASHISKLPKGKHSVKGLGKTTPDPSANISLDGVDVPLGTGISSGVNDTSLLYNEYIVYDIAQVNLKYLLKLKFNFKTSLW
Nature of the data set: PARP enzyme activity inhibitory action. Type of data set: biochemical. Particulars: recombinant human PARP (Trevigen), 3H-NAD, activated DNA, 25° C. for 15 min. The protocol: After incubation at 25° C. for 15 min., the reaction was stopped by adding 20% trichloroacetic acid, and the resulting acid insoluble fraction was adsorbed to a GF/B filter. Then, the filter was washed several times with 5% trichloroacetic acid, and the radioactivity on the filter was measured with a liquid scintillation counter.
Usually IC50 stands for the concentration at which inhibition is half-maximal. As for `O=C1NCCc2c(OCCCCN3CCCCC3)cccc21` [DPQ, 3,4-dihydro-5-[4-(1-piperidinyl)-butoxy]-1(2H)-isoquinolinone, reference compound], the IC50 came out at 1000 nM.
The same measure, in the same setting: the figure for `CN(C)CC(=O)c1c(N)[nH]c(=O)c2ccccc12` [Ex. 1, 3-amino-4-(2-(dimethylamino)acetyl)-2H-isoquinolin-1-one hydrochloride monohydrate] is 43 nM; for `Cn1nc(CN2CCCC2)c2c3ccccc3c(=O)[nH]c21` [Ex. 7, 3-methyl-1-(pyrrolidin-1-yl)methyl-3H-pyrazolo[3,4-c]isoquinolin-5(4H)-one] it is 32 nM.
`CN(C)CC(=O)c1c(N)[nH]c(=O)c2cc(F)ccc12` [Ex. 14, 3-Amino-4-(2-(dimethylamino)acetyl)-7-fluoro-2H-isoquinolin-1-one hydrochloride]: the IC50 stood at 40 nM.
Same read-out and setting: next, `CN1CCN(Cc2nn(C)c3[nH]c(=O)c4ccccc4c23)CC1` [Ex. 21, 3-Methyl-1-((4-methylpiperazin-1-yl)methyl)-3H-pyrazolo[3,4-c]isoquinolin-5(4H)-one]: 143 nM.
Regarding `Cc1[nH]c(=O)c2ccccc2c1CN1CCCC1` [Ex. 25, 3-Methyl-4-(pyrrolidin-1-yl)methyl-2H-isoquinolin-1-one], the IC50 came to 67 nM.
Take `Cc1[nH]c(=O)c2cc(Cl)ccc2c1CN1CCCC1` [Ex. 27, 7-chloro-3-methyl-4-((pyrrolidin-1-yl)methyl)-2H-isoquinolin-1-one]: the IC50 turned out to be 39 nM.
Consider `Cc1[nH]c(=O)c2cc(F)ccc2c1CN1CCCC1` [Ex. 28, 7-Fluoro-3-methyl-4-((pyrrolidin-1-yl)methyl)-2H-isoquinolin-1-one], for which the IC50 was found to be 45 nM.
Same read-out and setting: next, `O=c1[nH]cc(C2CCNCC2)c2ccccc12` [Ex. 31, 4-(piperidin-4-yl)-2H-isoquinolin-1-one hydrochloride]: 31 nM; `O=c1[nH]cc(C2CCN(CCO)CC2)c2ccccc12` [Ex. 32, 4-(1-(2-hydroxyethyl)piperidin-4-yl)-2H-isoquinolin-1-one]: 34 nM.
`CN1CCC(c2c[nH]c(=O)c3ccccc23)CC1` [Ex. 33, 4-(1-methylpiperidin-4-yl)-2H-isoquinolin-1-one]: the half-maximal inhibitory concentration (IC50) was 40 nM.
For `O=c1[nH]cc(C2CCNCC2)c2ccc(Cl)cc12` [Ex. 44, 7-Chloro-4-(piperidin-4-yl)-2H-isoquinolin-1-one hydrochloride], the IC50 is 22 nM.
For the molecule `O=c1[nH]cc(C2CCNCC2)c2ccc(F)cc12` [Ex. 45, 7-Fluoro-4-(piperidin-4-yl)-2H-isoquinolin-1-one hydrochloride], the IC50 was found to be 22 nM.
As to `CN1CCC(c2c[nH]c(=O)c3cc(Cl)ccc23)CC1` [Ex. 46, 7-Chloro-4-(1-methylpiperidin-4-yl)-2H-isoquinolin-1-one], the concentration for half-maximal inhibition (IC50) came to 37 nM.
The same measure, in the same setting: next, `CN1CCC(c2c[nH]c(=O)c3cc(F)ccc23)CC1` [Ex. 47, 7-Fluoro-4-(1-methylpiperidin-4-yl)-2H-isoquinolin-1-one hydrochloride]: 23 nM; `O=c1[nH]cc(C2CCN(CCO)CC2)c2ccc(F)cc12` [Ex. 48, 7-Fluoro-4-(1-(2-hydroxyethyl)piperidin-4-yl)-2H-isoquinolin-1-one hydrochloride]: 24 nM; `CN1CCC(c2nn(C)c3[nH]c(=O)c4ccccc4c23)CC1` [Ex. 209, 1-(1-methylpiperidin-4-yl)-3-methyl-pyrazolo[3,4-c]isoquinolin-5(4H)-one]: 43 nM.
On the same count and under the same terms, next, `CCN1CCC(c2nn(C)c3[nH]c(=O)c4ccccc4c23)CC1` [Ex. 210, 1-(1-Ethylpiperidin-4-yl)-3-methyl-pyrazolo[3,4-c]isoquinolin-5(4H)-one]: 25 nM; `CCN1CCC(c2c[nH]c(=O)c3cc(F)ccc23)CC1` [Ex. 212, 7-Fluoro-4-(1-ethylpiperidin-4-yl)-2H-isoquinolin-1-one]: 47 nM; `Cn1nc(C2CCNCC2)c2c3ccc(F)cc3c(=O)[nH]c21` [Ex. 221, 7-Fluoro-1-(piperidin-4-yl)-3-methyl-pyrazolo[3,4-c]isoquinolin-5(4H)-one hydrochloride]: 30 nM.
On to `CN1CCC(c2nn(C)c3[nH]c(=O)c4cc(F)ccc4c23)CC1` [Ex. 222, 7-Fluoro-1-(1-methylpiperidin-4-yl)-3-methyl-pyrazolo[3,4-c]isoquinolin-5(4H)-one], for which the IC50 worked out at 44 nM.
On the same count and under the same terms, the figure for `CCN1CCC(c2nn(C)c3[nH]c(=O)c4cc(F)ccc4c23)CC1` [Ex. 223, 1-(1-Ethylpiperidin-4-yl)-7-fluoro-3-methyl-pyrazolo[3,4-c]isoquinolin-5(4H)-one] is 30 nM; for `CCCN1CCC(c2nn(C)c3[nH]c(=O)c4cc(F)ccc4c23)CC1` [Ex. 225, 7-Fluoro-1-(1-propylpiperidin-4-yl)-3-methyl-pyrazolo[3,4-c]isoquinolin-5(4H)-one] it is 42 nM; for `CCCN1CCC(c2nn(C)c3[nH]c(=O)c4ccccc4c23)CC1` [Ex. 226, 1-(1-Propylpiperidin-4-yl)-3-methyl-pyrazolo[3,4-c]isoquinolin-5(4H)-one] it is 47 nM.
